Data published in US20240391909A1, “DISULFIDE COMPOUND, POLYSULFIDE COMPOUND, AND USE THEREOF” (KUMIAI CHEMICAL INDUSTRY CO., LTD., priority 2021, published 2024).

System: Helicoverpa armigera
Assay: Insecticidal activity test against Helicoverpa armigera (cabbage leaf dip)
Format: in vivo
Details: hatched larvae, 25° C., after 6 days
Protocol: A wettable powder prepared in accordance with Formulation Example 1 was diluted with water to a concentration of 500 ppm as the active ingredient. A cabbage leaf was dipped in the resultant chemical solution, air-dried, and then put in a plastic cup. Five hatched larvae of Helicoverpa armigera were released therein, and the resultant was covered. Thereafter, the resultant was placed in a constant temperature chamber of 25° C., and after 6 days, the number of dead larvae was counted to obtain a corrected mortality rate in accordance with the following equation of Expression 1. The test was performed in duplicate.

[1] = 500 ppm active ingredient, same test run with comparative formula A, 2-a retested at the same time

Row | SMILES | corrected mortality rate (500 ppm active ingredient (wettable powder diluted with water), first test) | corrected mortality rate [1]
1 | Cn1nc(C(F)(F)F)c(CSSCc2c(C(F)(F)F)nn(C)c2OC(F)F)c1OC(F)F [Compound 2-a, 1,2-bis[(5-difluoromethoxy-1-methyl-3-trifluoromethylpyrazol-4-yl)methyl]disulfide] | 75% | 89%
2 | Cc1cc(CSSCc2cc(C)[nH]n2)n[nH]1 [formula A, reference compound] | – | 44%
